ChEMBL document CHEMBL1146175, “Natural inhibitors targeting osteoclast-mediated bone resorption” (Bioorg Med Chem Lett, 2006)

How the values were obtained:
[1] = molecular target: T1, Cathepsin K (Homo sapiens, UniProt P43235); assay: Inhibition of human Cathepsin K
T1 sequence (P43235 whole entry): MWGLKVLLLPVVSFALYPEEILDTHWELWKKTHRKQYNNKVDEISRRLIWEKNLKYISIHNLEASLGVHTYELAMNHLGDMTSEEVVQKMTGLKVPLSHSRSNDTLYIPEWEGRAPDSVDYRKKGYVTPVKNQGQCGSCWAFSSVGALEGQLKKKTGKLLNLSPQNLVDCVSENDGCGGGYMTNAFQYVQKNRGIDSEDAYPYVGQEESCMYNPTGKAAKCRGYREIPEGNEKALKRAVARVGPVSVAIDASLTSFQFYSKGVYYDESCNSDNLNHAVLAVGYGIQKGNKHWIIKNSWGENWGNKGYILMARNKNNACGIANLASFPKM

[2] = molecular target: Matrix metalloproteinase-9 (Homo sapiens, UniProt P14780); assay: Inhibition of human MMP9 by quenched fluorescense assay
[3] = molecular target: Integrin alpha-V/beta-3 (Homo sapiens, UniProt P05106+P06756); assay: Inhibition of human alpha-v-beta-3 integrin receptor by ELISA; assay type: protein-complex assay
Integrin alpha-V/beta-3, sequence (P05106 27-788 limits assumed): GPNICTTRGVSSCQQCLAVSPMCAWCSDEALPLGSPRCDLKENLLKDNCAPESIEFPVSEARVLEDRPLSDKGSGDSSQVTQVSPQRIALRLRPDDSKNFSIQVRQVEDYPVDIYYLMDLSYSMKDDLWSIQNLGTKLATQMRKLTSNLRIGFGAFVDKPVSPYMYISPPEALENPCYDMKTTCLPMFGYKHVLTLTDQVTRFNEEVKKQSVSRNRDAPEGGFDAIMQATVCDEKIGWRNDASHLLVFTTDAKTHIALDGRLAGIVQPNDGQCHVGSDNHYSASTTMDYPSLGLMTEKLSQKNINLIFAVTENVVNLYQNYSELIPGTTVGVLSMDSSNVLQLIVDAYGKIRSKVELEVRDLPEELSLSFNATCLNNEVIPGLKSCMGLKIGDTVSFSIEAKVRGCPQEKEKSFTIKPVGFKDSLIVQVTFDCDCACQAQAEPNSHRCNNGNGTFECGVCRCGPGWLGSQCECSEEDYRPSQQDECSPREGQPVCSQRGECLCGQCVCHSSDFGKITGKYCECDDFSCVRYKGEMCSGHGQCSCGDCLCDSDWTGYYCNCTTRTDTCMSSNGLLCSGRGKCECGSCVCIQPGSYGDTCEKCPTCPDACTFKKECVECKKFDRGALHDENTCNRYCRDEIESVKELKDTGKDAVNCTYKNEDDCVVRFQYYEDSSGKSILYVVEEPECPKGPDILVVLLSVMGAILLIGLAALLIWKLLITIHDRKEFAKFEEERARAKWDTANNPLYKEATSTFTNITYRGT
Integrin alpha-V/beta-3, sequence (P06756 31-889 limits assumed): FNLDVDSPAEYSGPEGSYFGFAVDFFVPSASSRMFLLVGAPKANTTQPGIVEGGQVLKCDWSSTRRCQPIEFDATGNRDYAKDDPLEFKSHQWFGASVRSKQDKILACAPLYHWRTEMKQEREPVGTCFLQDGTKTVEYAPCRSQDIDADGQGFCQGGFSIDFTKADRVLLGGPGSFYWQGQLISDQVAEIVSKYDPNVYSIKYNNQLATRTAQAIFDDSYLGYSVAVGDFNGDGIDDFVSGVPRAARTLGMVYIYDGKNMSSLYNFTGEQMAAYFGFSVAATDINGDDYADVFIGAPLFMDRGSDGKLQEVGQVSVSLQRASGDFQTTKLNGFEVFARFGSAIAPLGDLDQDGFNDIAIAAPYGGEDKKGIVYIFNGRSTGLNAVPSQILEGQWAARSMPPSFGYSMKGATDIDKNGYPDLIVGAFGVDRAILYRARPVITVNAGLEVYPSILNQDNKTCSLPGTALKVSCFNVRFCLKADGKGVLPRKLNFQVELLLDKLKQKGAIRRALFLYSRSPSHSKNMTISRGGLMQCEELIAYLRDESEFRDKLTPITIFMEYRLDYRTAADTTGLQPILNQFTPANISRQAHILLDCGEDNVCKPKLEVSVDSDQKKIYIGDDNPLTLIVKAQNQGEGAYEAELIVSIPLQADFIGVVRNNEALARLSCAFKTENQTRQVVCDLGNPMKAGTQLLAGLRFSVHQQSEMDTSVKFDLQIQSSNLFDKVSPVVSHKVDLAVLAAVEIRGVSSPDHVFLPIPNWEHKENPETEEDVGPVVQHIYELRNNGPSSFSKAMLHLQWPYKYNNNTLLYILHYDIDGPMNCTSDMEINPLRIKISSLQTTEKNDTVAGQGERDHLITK
Integrin alpha-V/beta-3, sequence (P06756 891-1048 limits assumed): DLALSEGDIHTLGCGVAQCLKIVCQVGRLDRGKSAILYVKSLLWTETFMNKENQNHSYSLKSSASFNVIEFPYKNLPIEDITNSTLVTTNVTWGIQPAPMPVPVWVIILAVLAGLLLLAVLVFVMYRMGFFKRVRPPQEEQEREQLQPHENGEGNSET

Matrix metalloproteinase-9, sequence (P14780 whole entry): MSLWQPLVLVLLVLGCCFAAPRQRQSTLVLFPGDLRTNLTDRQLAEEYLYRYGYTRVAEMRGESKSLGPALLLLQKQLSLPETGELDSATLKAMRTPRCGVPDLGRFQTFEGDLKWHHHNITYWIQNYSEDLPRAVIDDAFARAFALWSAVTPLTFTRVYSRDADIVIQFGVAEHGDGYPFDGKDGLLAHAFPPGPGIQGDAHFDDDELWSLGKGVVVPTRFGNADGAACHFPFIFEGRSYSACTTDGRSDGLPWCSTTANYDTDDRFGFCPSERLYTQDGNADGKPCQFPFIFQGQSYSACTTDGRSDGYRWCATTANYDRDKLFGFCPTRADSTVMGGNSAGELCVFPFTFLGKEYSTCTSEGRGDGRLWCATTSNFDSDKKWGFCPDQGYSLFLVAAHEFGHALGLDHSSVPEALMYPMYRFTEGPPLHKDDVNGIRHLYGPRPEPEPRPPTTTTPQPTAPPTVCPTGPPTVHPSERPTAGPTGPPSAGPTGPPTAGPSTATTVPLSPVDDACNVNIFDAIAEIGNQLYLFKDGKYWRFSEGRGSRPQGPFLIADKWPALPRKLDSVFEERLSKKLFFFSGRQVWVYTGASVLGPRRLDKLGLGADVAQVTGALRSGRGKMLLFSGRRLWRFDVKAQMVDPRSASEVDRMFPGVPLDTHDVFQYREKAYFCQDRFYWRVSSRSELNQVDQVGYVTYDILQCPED

COc1ccc(-c2cc(=O)c3c(O)cc(O)c(-c4cc(-c5cc(=O)c6c(O)cc(O)cc6o5)ccc4O)c3o2)cc1 [PODOCARPUSFLAVONE A]
IC50 [1]: 2520 nM

COc1ccc(-c2cc(=O)c3c(O)cc(OC)c(-c4cc(-c5cc(=O)c6c(O)cc(O)cc6o5)ccc4O)c3o2)cc1 [7'',4'''-dimethylamentoflavone]
IC50 [1]: 1570 nM

COc1ccc(-c2cc(=O)c3c(O)cc(O)cc3o2)cc1-c1c(O)cc(O)c2c(=O)cc(-c3ccc(O)cc3)oc12 [BILOBETIN]
IC50 [1]: 1520 nM

O=C1C[C@@H](c2ccc(O)c(-c3c(O)cc(O)c4c(=O)cc(-c5ccc(O)cc5)oc34)c2)Oc2cc(O)cc(O)c21
IC50 [1]: 1420 nM

O=C(NO)[C@@H](Cc1ccccc1)NS(=O)(=O)c1ccc(-c2ccccc2)cc1
IC50 [2]: 7.06 nM

COc1cc2c([nH]c3c4c(c(C)cc32)OC(C)(C)C=C4)c(-c2c(O)c(OC)cc3c2[nH]c2c4c(c(C)cc23)OC(C)(C)C=C4)c1O
IC50 [1]: 1910 nM

O=C(O)/C=C/c1ccccc1O[C@@H]1O[C@H](CO)[C@@H](O)[C@H](O)[C@H]1O [MELILOTOSIDE]
IC50 [3]: 18300 nM

C[C@@H]1C[C@@H](O)[C@@]2(O)[C@@]13C[C@@H](OC(=O)[C@@H]3O)[C@](C)(O)[C@@]21COC1=O [ANIASATIN]
IC50 [2]: 17700 nM

O=c1cc(-c2ccc(O)c(-c3c(O)cc(O)c4c(=O)cc(-c5ccc(O)cc5)oc34)c2)oc2cc(O)cc(O)c12 [AMENTOFLAVONE]
IC50 [1]: 1880 nM

O=c1c2ccccc2nc2n1CCc1c-2[nH]c2ccccc12 [RUTAECARPINE]
IC50 [2]: 27700 nM

CC(=O)N[C@@H](CC(C)C)C(=O)N[C@@H](CC(C)C)C(=O)N[C@H](C=O)CCCNC(=N)N [LEUPEPTIN]
IC50 [1]: 42.2 nM

O=c1cc(-c2ccc(Oc3c(O)cc4oc(-c5ccc(O)cc5)cc(=O)c4c3O)cc2)oc2cc(O)cc(O)c12 [HINOKIFLAVONE]
IC50 [1]: 1540 nM
